Consider one compound from ChEMBL document CHEMBL2073761, “Celastraceae sesquiterpenes as a new class of modulators that bind specifically to human P-glycoprotein and reverse cellular multidrug resistance” (Cancer Res, 2004).

This series addresses ATP-dependent translocase ABCB1 (Homo sapiens, UniProt P08183). The experiment in a line: TP_TRANSPORTER: efflux of Tetramethylrosamine in membrane vesicles from reconstituted PMPC proteoliposomes containing P-glycoprotein. Format: functional, cell membranes, Membrane vesicle from reconstituted proteoliposome.

Chain of ATP-dependent translocase ABCB1 (P08183 whole entry): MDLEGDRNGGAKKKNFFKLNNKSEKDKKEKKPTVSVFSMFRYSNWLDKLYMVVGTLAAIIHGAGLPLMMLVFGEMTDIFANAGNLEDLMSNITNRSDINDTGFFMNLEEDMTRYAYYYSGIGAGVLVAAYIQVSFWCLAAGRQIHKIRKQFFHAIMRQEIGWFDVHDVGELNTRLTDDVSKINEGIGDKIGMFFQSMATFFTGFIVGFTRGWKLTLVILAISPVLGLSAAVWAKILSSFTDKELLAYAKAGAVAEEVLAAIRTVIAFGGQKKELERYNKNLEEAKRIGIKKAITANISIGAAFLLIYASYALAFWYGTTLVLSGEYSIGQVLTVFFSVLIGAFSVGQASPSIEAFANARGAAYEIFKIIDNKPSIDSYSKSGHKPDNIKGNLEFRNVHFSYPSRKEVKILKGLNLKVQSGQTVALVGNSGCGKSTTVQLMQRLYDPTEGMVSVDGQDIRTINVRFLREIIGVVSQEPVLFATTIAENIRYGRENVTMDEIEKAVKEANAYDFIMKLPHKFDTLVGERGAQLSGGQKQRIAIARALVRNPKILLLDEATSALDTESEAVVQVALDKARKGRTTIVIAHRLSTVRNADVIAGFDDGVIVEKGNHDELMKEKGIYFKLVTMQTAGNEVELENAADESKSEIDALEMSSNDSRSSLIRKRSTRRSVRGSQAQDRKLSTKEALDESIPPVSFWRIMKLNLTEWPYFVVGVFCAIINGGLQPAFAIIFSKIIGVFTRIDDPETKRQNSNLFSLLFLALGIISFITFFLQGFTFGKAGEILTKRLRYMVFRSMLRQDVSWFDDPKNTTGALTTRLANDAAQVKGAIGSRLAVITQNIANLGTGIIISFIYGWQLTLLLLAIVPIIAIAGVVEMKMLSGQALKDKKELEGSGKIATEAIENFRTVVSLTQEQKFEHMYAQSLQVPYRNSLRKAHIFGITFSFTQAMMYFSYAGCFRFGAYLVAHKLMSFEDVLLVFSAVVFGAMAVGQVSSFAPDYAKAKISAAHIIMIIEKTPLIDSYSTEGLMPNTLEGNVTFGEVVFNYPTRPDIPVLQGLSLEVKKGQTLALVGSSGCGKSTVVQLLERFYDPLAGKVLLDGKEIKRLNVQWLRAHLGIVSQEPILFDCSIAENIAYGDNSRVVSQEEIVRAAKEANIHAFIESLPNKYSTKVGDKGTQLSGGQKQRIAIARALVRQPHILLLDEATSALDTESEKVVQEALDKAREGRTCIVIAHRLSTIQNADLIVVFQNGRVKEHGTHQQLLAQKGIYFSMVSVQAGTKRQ

With `CN(C)c1ccc2c(-c3ccc(CCl)cc3)c3ccc(=[N+](C)C)cc-3oc2c1.[Br-]` [TETRAMETHYLROSAMINE], the Activity entry was “inhibitor [+]”.
